The source made the active and inactive calls.

Usually IC50 stands for the concentration needed to halve the response being measured. The EC50 is the midpoint of the concentration-response curve. Broadly, the AC50 is the concentration at which the activity in the assay is half-maximal.

Experiment [1] deals with T1, Alkaline phosphatase, tissue-nonspecific isozyme (Homo sapiens, UniProt P05186).
T1 sequence (P05186 whole entry): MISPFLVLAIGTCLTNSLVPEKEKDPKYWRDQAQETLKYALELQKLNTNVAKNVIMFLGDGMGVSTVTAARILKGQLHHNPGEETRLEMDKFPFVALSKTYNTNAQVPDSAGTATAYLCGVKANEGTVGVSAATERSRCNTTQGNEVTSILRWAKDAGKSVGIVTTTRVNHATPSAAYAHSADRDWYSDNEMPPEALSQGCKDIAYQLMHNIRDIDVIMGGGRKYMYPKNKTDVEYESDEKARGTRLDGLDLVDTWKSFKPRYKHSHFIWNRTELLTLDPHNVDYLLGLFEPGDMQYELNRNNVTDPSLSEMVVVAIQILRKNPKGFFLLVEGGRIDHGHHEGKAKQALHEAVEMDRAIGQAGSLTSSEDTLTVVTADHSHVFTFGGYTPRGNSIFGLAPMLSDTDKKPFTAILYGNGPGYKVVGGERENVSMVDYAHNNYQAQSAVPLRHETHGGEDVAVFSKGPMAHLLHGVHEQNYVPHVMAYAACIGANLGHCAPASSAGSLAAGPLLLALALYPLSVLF
The experiment in a line: TNAP enzyme inhibition by screening hits, dose response, selectivity assay for mouse IAP inhibitor project, biochemical, human TNAP, uHTS hits (AID 488906). The experiment is classed as functional.

In experiment [2] the target is T2, Beta-galactosidase (Escherichia coli, UniProt Q8VNN2). The experiment in a line: PubChem AID 485352. The experiment is classed as functional.
T2 sequence (Q8VNN2 whole entry): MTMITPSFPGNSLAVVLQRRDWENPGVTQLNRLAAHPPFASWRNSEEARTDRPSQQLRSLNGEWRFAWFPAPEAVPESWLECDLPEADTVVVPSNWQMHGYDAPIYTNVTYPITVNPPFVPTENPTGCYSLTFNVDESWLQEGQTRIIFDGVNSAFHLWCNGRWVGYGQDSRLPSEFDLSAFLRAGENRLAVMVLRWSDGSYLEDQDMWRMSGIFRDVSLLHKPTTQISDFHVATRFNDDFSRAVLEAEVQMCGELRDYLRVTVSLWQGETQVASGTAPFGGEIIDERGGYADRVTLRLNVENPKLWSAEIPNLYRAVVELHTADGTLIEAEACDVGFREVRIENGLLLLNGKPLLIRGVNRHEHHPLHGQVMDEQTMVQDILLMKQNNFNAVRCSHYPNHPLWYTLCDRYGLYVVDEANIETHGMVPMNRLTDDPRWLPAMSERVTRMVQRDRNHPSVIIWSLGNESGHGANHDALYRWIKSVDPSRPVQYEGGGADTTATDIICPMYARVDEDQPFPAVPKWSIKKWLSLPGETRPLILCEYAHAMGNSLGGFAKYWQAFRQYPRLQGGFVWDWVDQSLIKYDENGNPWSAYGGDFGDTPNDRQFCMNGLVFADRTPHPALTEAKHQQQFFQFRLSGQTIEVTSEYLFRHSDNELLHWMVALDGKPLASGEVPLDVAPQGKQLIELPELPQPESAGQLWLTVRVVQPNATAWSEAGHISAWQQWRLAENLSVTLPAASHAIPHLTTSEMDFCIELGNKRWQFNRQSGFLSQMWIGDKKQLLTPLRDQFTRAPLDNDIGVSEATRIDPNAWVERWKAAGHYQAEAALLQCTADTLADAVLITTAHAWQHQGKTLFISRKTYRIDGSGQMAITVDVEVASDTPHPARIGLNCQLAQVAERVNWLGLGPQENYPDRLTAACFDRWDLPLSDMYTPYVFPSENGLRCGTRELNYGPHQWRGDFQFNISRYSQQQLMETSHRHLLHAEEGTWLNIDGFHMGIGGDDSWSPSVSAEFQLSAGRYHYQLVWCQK
The target of experiment [3] is Intestinal-type alkaline phosphatase (Mus musculus, UniProt P24822). The experiment in a line: PubChem AID 488785. The experiment is classed as functional.
Intestinal-type alkaline phosphatase (Mus musculus, UniProt P24822), sequence (P24822 whole entry): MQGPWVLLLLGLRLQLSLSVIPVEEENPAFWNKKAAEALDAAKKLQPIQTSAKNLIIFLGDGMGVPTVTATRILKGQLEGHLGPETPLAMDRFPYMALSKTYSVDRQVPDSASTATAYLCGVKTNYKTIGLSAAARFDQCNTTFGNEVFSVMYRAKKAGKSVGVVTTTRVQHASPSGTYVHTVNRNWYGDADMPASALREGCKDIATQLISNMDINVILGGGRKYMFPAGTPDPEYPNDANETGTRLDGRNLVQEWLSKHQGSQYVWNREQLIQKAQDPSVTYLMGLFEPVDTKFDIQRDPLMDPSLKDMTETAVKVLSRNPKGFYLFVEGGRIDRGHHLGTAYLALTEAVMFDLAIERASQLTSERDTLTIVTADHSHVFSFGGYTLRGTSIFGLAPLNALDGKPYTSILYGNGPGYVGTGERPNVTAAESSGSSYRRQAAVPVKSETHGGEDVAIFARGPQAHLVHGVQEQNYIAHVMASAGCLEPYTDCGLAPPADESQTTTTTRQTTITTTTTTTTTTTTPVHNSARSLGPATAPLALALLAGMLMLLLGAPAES
Experiment [4] addresses T3, Type-1 angiotensin II receptor (Homo sapiens, UniProt P30556).
T3 sequence (P30556 whole entry): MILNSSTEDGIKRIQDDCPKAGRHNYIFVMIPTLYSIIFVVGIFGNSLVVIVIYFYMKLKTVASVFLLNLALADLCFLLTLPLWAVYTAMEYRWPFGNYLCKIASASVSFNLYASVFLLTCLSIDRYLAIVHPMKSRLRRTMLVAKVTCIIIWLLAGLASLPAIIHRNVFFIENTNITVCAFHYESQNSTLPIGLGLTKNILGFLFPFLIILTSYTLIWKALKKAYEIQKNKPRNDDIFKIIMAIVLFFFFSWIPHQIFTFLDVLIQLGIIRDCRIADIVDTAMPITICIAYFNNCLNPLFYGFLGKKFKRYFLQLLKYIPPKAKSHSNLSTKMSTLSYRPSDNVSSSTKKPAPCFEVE
The experiment can be described thus: antagonism of angiotensin II type 1 receptor – cell-based, uHTS hits, selectivity assay for APJ receptor antagonist project, dose response (AID 463214).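 Also: antagonist potency against angiotensin II stimulated AT1 response.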 The experiment is classed as functional.

The target of experiment [5] is Heat shock protein HSP 90-alpha (Homo sapiens, UniProt P07900). The experiment is classed as functional, organism-based.
The target of experiment [6] is Intestinal-type alkaline phosphatase (Homo sapiens, UniProt P09923). The experiment can be described thus: inhibition of human intestinal alkaline phosphatase – biochemical, dose response (AID 488876). The experiment is classed as functional.
Intestinal-type alkaline phosphatase (Homo sapiens, UniProt P09923), sequence (P09923 whole entry): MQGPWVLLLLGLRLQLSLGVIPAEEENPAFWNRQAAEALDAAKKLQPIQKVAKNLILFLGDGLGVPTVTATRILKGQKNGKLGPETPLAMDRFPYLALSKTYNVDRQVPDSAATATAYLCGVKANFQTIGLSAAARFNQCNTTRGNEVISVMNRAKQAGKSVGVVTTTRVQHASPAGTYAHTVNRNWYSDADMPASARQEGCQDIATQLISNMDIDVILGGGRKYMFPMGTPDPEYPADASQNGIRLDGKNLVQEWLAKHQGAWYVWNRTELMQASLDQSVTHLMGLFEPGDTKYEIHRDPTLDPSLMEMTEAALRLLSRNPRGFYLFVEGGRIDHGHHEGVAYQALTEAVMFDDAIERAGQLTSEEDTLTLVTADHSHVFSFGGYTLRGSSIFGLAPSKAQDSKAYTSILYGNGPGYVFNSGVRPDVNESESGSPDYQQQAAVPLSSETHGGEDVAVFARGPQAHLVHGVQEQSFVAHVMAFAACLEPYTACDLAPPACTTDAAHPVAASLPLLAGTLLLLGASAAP
In another experiment the target is Mu-type opioid receptor (Homo sapiens, UniProt P35372). The experiment in a line: HTS Image-Based Screen for Agonists of the MOR Receptor. [Related pubchem assays (depositor defined):AID1777, AID1785, AID1786, AID2133]. The experiment is classed as functional.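 Also: imaging of beta-arrestin GFP recruitment into spots after receptor activation.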
Mu-type opioid receptor, sequence (P35372 whole entry): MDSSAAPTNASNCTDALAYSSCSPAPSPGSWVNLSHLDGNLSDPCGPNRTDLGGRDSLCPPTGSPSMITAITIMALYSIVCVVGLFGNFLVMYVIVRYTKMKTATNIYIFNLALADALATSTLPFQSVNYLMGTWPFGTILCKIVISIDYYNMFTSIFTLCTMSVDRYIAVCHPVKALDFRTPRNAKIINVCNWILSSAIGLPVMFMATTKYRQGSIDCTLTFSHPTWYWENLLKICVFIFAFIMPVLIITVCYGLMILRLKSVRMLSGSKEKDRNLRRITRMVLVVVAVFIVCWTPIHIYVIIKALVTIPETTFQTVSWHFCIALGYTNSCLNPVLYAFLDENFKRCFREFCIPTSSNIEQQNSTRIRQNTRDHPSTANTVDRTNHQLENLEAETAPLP
The target in experiment [7] is T4, Kappa-type opioid receptor (Homo sapiens, UniProt P41145). The experiment is classed as functional.
T4 sequence (P41145 whole entry): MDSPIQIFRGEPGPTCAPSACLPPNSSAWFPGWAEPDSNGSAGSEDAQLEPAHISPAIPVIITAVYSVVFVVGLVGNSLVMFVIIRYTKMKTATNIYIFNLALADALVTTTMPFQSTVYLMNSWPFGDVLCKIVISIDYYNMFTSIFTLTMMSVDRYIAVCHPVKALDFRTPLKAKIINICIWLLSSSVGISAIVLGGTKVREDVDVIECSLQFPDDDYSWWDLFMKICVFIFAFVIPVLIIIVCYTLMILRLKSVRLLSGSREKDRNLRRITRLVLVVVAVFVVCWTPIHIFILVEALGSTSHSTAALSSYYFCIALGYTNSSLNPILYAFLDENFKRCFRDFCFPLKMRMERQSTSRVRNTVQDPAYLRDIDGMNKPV
Experiment [8] has as its target T2, Beta-galactosidase. The experiment in a line: detection-enzyme interference by beta-gal modulators – biochemical, E. coli enzyme, set 3, artefact control for CCR6 antagonist project, dose response (AID 504712). The experiment is classed as functional.
Experiment [9] has as its target T2, Beta-galactosidase. The experiment is classed as functional.
Experiment [10] can be described thus: Trypanosoma cruzi growth suppression in host cells – NIH3T3 host cells, beta-gal luminescence, confirmation (AID 2044).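 Also: intracellular parasites grown in NIH/3T3 mouse fibroblasts as host cells; luminescent beta-galactosidase reporter signal from transgenic T. cruzi replicating inside host cells; inhibitors lower the luminescence signal.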 The experiment is classed as functional, cell-based.
For experiment [11], the target named is T5, C-C chemokine receptor type 6 (Homo sapiens, UniProt P51684).
T5 sequence (P51684 whole entry): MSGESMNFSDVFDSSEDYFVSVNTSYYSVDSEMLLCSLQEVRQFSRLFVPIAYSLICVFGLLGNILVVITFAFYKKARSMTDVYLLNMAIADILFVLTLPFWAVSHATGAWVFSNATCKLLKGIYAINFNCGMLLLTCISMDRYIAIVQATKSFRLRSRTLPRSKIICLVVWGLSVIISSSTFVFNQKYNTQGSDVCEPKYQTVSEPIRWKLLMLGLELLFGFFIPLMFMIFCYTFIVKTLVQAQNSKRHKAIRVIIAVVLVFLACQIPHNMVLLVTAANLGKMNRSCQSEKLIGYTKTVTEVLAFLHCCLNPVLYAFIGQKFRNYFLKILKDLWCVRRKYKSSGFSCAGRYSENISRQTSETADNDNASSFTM
The experiment can be described thus: antagonism of CCR6 beta-arrestin recruitment – cell-based, luminescent beta-arrestin readout, dose response (AID 504728). The experiment is classed as functional. For orientation: Arrestin recruitment assays detect the binding of arrestin to an activated receptor.

Experiment [12] has as its target T6, Delta-type opioid receptor (Homo sapiens, UniProt P41143). The experiment can be described thus: HTS Image-Based Screen for Agonists of the DOR Receptor. [Related pubchem assays (depositor defined):AID1777, AID1786, AID2133]. The experiment is classed as functional.
The target in the next experiment is Cytochrome P450 2C19 (Homo sapiens, UniProt P33261). The experiment can be described thus: Cytochrome panel assay with activity outcomes. Panel member name: p450-cyp2c19 Compounds with AC50 equal or less than 10 uM are considered active. The experiment is classed as functional. Particulars: read-out: AC50.
Cytochrome P450 2C19, sequence (P33261 whole entry): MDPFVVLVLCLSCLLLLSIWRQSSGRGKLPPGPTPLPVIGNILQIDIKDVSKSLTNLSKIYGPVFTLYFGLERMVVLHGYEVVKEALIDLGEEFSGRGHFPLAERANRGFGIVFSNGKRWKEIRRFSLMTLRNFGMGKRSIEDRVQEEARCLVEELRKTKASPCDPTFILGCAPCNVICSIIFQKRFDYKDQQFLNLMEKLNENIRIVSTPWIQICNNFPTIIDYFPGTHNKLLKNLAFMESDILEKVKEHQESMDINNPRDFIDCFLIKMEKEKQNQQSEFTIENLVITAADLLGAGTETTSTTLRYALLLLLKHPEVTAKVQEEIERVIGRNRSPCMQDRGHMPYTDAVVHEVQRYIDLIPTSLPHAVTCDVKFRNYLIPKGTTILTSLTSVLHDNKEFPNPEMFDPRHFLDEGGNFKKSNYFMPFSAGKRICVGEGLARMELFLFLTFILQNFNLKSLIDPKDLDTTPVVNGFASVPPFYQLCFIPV
The target of experiment [13] is T4, Kappa-type opioid receptor. The experiment is classed as functional. The source holds these as a separate data set.
The target in the next experiment is Cytochrome P450 2C9 (Homo sapiens, UniProt P11712).
Cytochrome P450 2C9, sequence (P11712 whole entry): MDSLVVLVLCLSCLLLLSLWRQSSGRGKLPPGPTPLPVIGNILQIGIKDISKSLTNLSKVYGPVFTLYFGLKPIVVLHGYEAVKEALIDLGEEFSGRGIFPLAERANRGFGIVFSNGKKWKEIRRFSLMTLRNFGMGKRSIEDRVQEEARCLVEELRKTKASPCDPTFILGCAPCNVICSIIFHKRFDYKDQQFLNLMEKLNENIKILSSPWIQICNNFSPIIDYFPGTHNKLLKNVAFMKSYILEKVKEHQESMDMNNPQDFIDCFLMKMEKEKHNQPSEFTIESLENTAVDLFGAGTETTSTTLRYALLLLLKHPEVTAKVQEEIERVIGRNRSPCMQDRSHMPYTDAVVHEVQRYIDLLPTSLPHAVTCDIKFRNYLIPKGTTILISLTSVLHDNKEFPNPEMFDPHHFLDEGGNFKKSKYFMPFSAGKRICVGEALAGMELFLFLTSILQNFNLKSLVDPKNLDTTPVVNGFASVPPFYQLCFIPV
Experiment [14] is described as follows: NIH3T3 cell viability loss – ATP luminescence, mouse fibroblasts, counter-screen, dose response (AID 2010).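 Also: cells exposed to compound for about 90 hours before reading.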 The experiment is classed as functional, cell-based. For orientation: The purpose of a counterscreen is to sort out artefacts and off-target activity.
Experiment [15] concerns the target T6, Delta-type opioid receptor. The experiment in a line: HTS Image-Based Screen for Antagonists of the DOR Receptor. [Related pubchem assays (depositor defined):AID1777, AID1785, AID1786, AID2133]. The experiment is classed as functional.
Experiment [16] deals with T7, Long-chain-fatty-acid--AMP ligase FadD28 (Mycobacterium tuberculosis, UniProt P9WQ59).
T7 sequence (P9WQ59 whole entry): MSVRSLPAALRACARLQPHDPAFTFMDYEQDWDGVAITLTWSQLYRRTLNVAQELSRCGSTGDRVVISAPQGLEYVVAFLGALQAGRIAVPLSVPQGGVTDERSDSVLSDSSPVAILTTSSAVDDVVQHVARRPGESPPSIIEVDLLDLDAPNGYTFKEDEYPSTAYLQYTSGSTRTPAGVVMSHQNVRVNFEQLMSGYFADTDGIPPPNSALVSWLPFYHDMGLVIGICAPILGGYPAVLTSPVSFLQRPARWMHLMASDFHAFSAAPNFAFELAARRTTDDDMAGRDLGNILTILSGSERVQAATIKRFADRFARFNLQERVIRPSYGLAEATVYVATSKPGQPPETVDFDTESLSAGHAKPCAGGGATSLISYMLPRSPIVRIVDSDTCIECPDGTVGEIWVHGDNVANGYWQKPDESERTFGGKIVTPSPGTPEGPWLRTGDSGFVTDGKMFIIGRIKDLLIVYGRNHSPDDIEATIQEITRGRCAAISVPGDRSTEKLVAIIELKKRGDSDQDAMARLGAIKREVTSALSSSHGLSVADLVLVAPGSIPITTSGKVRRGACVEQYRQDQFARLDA
The experiment can be described thus: Fluorescence polarization aasay to screen for inhibitors that compete for the binding of FadD28 to a bisubstrate Measured in Biochemical System Using Plate Reader - 2147-01_Inhibitor_Dose_CherryPick_Activity. The experiment is classed as functional, Mycobacterium tuberculosis H37Rv.

The target in experiment [17] is T8, Tyrosine-protein phosphatase non-receptor type 22 (Homo sapiens, UniProt Q9Y2R2).
T8 sequence (Q9Y2R2 whole entry): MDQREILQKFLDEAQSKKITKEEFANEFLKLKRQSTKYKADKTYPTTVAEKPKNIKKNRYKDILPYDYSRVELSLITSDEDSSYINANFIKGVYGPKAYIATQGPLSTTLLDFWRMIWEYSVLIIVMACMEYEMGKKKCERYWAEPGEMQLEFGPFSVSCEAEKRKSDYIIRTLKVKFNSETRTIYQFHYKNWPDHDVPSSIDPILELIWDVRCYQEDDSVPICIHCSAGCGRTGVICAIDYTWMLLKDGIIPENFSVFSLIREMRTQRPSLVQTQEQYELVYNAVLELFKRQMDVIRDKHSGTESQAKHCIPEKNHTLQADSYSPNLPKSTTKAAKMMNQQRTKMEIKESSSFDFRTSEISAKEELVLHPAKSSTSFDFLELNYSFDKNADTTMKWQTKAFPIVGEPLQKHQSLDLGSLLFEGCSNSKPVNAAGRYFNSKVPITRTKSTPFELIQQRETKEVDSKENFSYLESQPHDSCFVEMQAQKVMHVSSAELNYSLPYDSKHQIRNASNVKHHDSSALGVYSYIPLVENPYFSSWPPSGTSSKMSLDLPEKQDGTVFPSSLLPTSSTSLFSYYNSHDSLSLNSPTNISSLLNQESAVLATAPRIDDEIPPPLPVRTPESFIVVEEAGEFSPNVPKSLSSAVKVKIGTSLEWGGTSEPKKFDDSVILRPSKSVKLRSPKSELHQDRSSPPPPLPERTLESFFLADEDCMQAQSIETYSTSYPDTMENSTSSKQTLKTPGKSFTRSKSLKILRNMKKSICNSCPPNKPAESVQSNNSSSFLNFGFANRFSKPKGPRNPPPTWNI
The experiment is classed as functional.

Experiment [18] concerns the target T9, Tyrosine-protein phosphatase non-receptor type 7 (Homo sapiens, UniProt P35236).
T9 sequence (P35236 whole entry): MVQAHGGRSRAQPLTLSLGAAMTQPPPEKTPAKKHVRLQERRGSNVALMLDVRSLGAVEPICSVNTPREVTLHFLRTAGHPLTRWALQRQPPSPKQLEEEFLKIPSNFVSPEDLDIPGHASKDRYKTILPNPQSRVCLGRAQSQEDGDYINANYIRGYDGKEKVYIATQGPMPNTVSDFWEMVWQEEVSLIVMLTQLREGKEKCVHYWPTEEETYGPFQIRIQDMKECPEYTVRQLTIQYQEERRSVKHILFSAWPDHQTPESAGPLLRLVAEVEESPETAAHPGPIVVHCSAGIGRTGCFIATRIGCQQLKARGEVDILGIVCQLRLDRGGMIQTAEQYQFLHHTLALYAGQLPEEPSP
The experiment is classed as functional.

The target in experiment [19] is T8, Tyrosine-protein phosphatase non-receptor type 22. The experiment is classed as functional. The source holds these as a separate data set.
The nature of experiment [20]: Counterscreen for AddAB inhibitors: absorbance-based bacterial cell-based high throughput dose response assay for inhibitors of bacterial viability. [Related pubchem assays (depositor defined):AID435030, AID449728, AID449731, AID488942, AID488955, AID488956]. The experiment is classed as functional.
The next experiment has as its target Exodeoxyribonuclease V (Escherichia coli (strain K12), UniProt P04993+P07648+P08394). The experiment in a line: RecBCD inhibition via phage-restricted bacterial growth – absorbance, V66 E. coli, mutant T4 phage, counter-screen for AddAB inhibitor project, dose response (AID 492957). The experiment is classed as functional, cell-based, Escherichia coli str. K-12 substr. MG1655.

T6 sequence (P41143 whole entry): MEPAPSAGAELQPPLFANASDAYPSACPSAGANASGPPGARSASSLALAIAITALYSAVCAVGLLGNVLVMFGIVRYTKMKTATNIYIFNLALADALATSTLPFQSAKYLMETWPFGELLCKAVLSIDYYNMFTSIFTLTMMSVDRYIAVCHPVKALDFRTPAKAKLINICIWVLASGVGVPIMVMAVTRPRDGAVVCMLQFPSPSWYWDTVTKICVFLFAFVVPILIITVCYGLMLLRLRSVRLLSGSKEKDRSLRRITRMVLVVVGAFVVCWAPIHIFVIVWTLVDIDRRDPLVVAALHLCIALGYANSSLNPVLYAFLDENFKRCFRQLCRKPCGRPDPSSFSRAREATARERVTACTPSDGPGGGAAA

For the compound `COc1cc(/C=C/[N+](=O)[O-])ccc1OC(=O)c1cc2ccccc2oc1=O`, the IC50 is > 100 µM (inactive) in experiment [1], 13 µM (active) in [3], 10.4 µM (active) in experiment [4] and > 100 µM (inactive) in [6]. Also, the EC50 at Beta-galactosidase [2] is > 40 µM (inactive). Also, the AC50 in experiment [5] was 1.01 µM (active).

Regarding `O=C(Nc1nccs1)c1sc2cc(Cl)ccc2c1Cl`, the EC50 at Mu-type opioid receptor is > 32 µM (inactive); at Beta-galactosidase [9], > 31.5 µM (inactive); in experiment [10], 2.31 µM (active); in experiment [12], > 32 µM (inactive); in [14], 17.9 µM (active). Moreover, the IC50 in experiment [7] is 9.5 µM (active); on Beta-galactosidase [8] it was > 66.6 µM (inactive); in experiment [11] it was > 66.6 µM (inactive); in experiment [13] it was above 32 µM; in experiment [15] it was > 32 µM (inactive). In addition, the AC50 at Cytochrome P450 2C19 is 631 nM (inconclusive); on Cytochrome P450 2C9 it was 891 nM (inconclusive).

On to `O=C(NN1C(=O)/C(=C/c2ccc(O)cc2)SC1=S)c1ccccc1O`, for which the IC50 is > 100 µM (inactive) in [1], 4.68 µM (active) in experiment [3] and > 100 µM (inactive) in [6]. Also, in experiment [16], the AC50 was 61.9 µM (active).

For `O=C(CCN1C(=O)C2CC=C(Cl)CC2C1=O)NCc1ccco1` (stereo not drawn), the IC50 in experiment [17], in experiment [18] and in experiment [19] was > 79.4 µM (inactive) throughout.

As to `O=C1c2ccccc2NC(c2ccc(-c3ccc(C(F)(F)F)cc3)o2)N1O` (stereo not drawn), the IC50 (in [20]; on Exodeoxyribonuclease V) was > 119 µM (inactive) throughout. Further, the concentration at half-maximal activity (AC50) in experiment [5] was 7.23 µM (active).

Source of the values: ChEMBL document CHEMBL1201862, “PubChem BioAssay data set” (2004).
